Key:
[1] = after 5 washing cycles
[2] = Oxidative chlorine loading by iodometric/thiosulfate titration; details: cotton fabric treated directly with 2% by weight TTDD, chlorinated in 10 vol % bleach at pH 8 for 30 minutes

titratable chlorine after washing ([1]; TTDD-treated chlorinated cotton fabric): no titratable chlorine | rechlorination after washing ([1]; TTDD-treated cotton fabric): could not be rechlorinated | Cl^+ loading [2]: 0.57%
SMILES: CC1(C)CC2(CC(C)(C)N1)NC(=O)NC2=O [TTDD]
